Source: patent US20220340597A1, “HEXAHYDRO-1H-PYRAZINO[1,2-A]PYRAZINE COMPOUNDS FOR THE TREATMENT OF AUTOIMMUNE DISEASE” (Hoffmann-La Roche Inc., priority 2019, published 2022)

How the values were obtained:
[1] = target: T1, human TLR9 (Homo sapiens, UniProt Q9NR96); test: HEK293-Blue-hTLR-9 cells assay; format: cell-based; conditions: HEK293-Blue-hTLR9 cells, ODN2006 stimulation, 20 hrs, SEAP reporter; read-out: HEK/hTLR9 IC50
T1 construct: host or cells: HEK293 (HEK-Blue hTLR9)
T1 sequence (Q9NR96 26-1032): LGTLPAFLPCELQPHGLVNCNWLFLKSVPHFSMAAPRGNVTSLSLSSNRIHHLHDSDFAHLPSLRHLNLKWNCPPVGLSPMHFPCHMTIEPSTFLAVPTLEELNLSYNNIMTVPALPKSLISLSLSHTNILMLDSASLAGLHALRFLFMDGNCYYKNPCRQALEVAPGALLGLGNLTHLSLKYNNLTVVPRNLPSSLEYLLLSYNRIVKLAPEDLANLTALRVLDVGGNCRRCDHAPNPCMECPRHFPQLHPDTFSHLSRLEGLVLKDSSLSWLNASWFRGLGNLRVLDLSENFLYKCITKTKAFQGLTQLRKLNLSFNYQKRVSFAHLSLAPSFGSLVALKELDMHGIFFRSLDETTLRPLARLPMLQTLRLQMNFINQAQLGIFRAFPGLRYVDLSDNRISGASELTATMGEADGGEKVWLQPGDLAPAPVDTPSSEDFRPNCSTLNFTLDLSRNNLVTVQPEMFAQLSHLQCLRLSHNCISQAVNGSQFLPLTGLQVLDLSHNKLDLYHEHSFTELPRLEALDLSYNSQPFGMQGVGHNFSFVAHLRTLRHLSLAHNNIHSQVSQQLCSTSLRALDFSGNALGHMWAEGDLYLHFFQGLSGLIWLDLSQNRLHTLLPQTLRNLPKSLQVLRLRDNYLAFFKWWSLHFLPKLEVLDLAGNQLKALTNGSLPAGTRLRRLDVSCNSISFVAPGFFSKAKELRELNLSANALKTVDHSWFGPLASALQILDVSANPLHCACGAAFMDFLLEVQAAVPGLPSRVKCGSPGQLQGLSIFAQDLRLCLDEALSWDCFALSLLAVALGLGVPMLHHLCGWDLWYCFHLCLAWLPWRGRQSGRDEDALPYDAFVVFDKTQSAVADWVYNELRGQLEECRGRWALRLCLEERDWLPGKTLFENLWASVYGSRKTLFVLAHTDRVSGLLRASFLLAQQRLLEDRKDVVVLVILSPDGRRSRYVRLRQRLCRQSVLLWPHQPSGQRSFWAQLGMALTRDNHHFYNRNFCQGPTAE

[2] = target: T2, human TLR8 (Homo sapiens, UniProt Q9NR97); test: HEK293-Blue-hTLR-8 cells assay
T2 sequence (Q9NR97 27-1041): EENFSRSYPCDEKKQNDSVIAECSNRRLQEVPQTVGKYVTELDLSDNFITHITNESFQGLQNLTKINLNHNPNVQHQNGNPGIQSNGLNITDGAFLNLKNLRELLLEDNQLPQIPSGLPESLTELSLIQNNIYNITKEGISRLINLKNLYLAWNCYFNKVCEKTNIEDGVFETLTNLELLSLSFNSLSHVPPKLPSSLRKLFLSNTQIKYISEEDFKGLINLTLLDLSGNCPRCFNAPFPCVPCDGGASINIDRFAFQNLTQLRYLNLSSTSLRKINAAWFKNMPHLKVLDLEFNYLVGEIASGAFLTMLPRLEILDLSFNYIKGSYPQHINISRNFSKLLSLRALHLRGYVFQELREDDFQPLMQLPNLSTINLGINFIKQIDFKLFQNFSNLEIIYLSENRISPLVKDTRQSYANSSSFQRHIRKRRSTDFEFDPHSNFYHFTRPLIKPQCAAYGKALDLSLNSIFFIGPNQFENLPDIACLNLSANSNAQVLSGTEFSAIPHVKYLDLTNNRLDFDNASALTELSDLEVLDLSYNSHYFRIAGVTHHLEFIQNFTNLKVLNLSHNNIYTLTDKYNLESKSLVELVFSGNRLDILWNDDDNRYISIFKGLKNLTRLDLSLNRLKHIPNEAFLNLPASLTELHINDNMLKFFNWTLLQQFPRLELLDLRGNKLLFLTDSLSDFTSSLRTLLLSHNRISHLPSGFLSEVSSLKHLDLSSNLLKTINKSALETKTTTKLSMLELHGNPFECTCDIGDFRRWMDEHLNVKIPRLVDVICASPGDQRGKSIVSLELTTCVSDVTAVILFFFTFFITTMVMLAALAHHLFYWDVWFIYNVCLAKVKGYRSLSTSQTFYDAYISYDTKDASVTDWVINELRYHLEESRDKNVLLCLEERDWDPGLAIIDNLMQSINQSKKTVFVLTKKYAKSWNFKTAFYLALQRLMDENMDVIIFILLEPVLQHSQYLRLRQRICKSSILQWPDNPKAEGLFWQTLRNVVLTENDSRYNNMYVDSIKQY
Experimental: The following tests were carried out in order to determine the activity of the compounds of formula (I) and (Ia) in HEK293-Blue-hTLR-7/8/9 cells assay.
HEK293-Blue-hTLR-8 Cells Assay:
A stable HEK293-Blue-hTLR-8 cell line was purchased from InvivoGen (Cat. #: hkb-htlr8, San Diego, Calif., USA). These cells were originally designed for studying the stimulation of human TLR8 by monitoring the activation of NF-κB. A SEAP (secreted embryonic alkaline phosphatase) reporter gene was placed under the control of the IFN-β minimal promoter fused to five NF-κB and AP-1-binding sites. The SEAP was induced by activating NF-κB and AP-1 via stimulating HEK-Blue hTLR8 cells with TLR8 ligands. Therefore, the reporter expression was declined by TLR8 antagonist under the stimulation of a ligand, such as R848, for incubation of 20 hrs. The cell culture supernatant SEAP reporter activity was determined using QUANTI-Blue™ kit (Cat. #: rep-qb1, Invivogen, San Diego, Calif., USA) at a wavelength of 640 nm, a detection medium that turns purple or blue in the presence of alkaline phosphatase.

Compound | IC50 [1] | IC50 [2]
C[C@@H]1CN(c2ccc(C#N)c3ncccc23)C[C@@H]2CN(Cc3ccc4c(c3)CNCC4)CCN21 (relative stereo) [Example 1] | 0.058 µM | 0.01 µM
C[C@@H]1CN(c2ccc(C#N)c3ncccc23)C[C@@H]2CN(Cc3ccnc(N4CCNCC4)c3)CCN21 (relative stereo) [Example 3] | 0.11 µM | 0.012 µM
[2H]c1ccc2c(N3C[C@@H]4CN(Cc5ccc(N6CC7(CN(C)C7)C6)nc5C)CCN4[C@H](C)C3)ccc(C#N)c2n1 [Example 80, 5-[(4R,9aS)-4-methyl-8-[[2-methyl-6-(6-methyl-2,6-diazaspiro[3.3]heptan-2-yl)-3-pyridyl]methyl]-3,4,6,7,9,9a-hexahydro-1H-pyrazino[1,2-a]pyrazin-2-yl]-2-deuterio-quinoline-8-carbonitrile] | < 0.032 µM | 0.005 µM
[2H]c1ccc2c(N3C[C@@H]4CN(Cc5ccc(N6CC[C@@](C)(N)C6)nc5C)CCN4[C@H](C)C3)ccc(C#N)c2n1 [Example 81, 5-[(4R,9aS)-8-[[6-[(3R)-3-amino-3-methyl-pyrrolidin-1-yl]-2-methyl-3-pyridyl]methyl]-4-methyl-3,4,6,7,9,9a-hexahydro-1H-pyrazino[1,2-a]pyrazin-2-yl]-2-deuterio-quinoline-8-carbonitrile] | < 0.032 µM | 0.005 µM
[2H]c1ccc2c(N3C[C@@H]4CN(Cc5ccc(N[C@H]6CNC[C@H]6F)nc5C)CCN4[C@H](C)C3)ccc(C#N)c2n1 [Example 82, 5-[(4R,9aS)-8-[[6-[[(3S,4R)-4-fluoropyrrolidin-3-yl]amino]-2-methyl-3-pyridyl]methyl]-4-methyl-3,4,6,7,9,9a-hexahydro-JH-pyrazino[1,2-a]pyrazin-2-yl]-2-deuterio-quinoline-8-carbonitrile] | 0.041 µM | 0.003 µM
[2H]c1ccc2c(N3C[C@@H]4CN(Cc5ccc(N6CC7CNCC(C6)O7)nc5C)CCN4[C@H](C)C3)ccc(C#N)c2n1 [Example 83, 5-[(4R,9aS)-4-methyl-8-[[2-methyl-6-(9-oxa-3,7-diazabicyclo[3.3.1]nonan-3-yl)-3-pyridyl]methyl]-3,4,6,7,9,9a-hexahydro-1H-pyrazino[1,2-a]pyrazin-2-yl]-2-deuterio-quinoline-8-carbonitrile] | 0.051 µM | 0.007 µM
[2H]c1ccc2c(N3C[C@@H]4CN(Cc5ccc(N6CC7CC(C6)N7)nc5C)CCN4[C@H](C)C3)ccc(C#N)c2n1 [Example 90, 5-[(4R,9aS)-8-[[6-(3,6-diazabicyclo[3.1.1]heptan-3-yl)-2-methyl-3-pyridyl]methyl]-4-methyl-3,4,6,7,9,9a-hexahydro-1H-pyrazino[1,2-a]pyrazin-2-yl]-2-deuterio-quinoline-8-carbonitrile] | 0.033 µM | 0.008 µM
[2H]c1ccc2c(N3C[C@@H]4CN(Cc5ccc(N6CC7CCC(C6)N7)nc5C)CCN4[C@H](C)C3)ccc(C#N)c2n1 [Example 91, 5-[(4R,9aS)-8-[[6-(3,8-diazabicyclo[3.2.1]octan-3-yl)-2-methyl-3-pyridyl]methyl]-4-methyl-3,4,6,7,9,9a-hexahydro-1H-pyrazino[1,2-a]pyrazin-2-yl]-2-deuterio-quinoline-8-carbonitrile] | 0.045 µM | 0.02 µM

Continued, values first:

IC50 [1] | IC50 [2] | Compound
< 0.032 µM | 0.019 µM | [2H]c1ccc2c(N3C[C@@H]4CN(CCc5ccc(N6CC[C@@](C)(N)C6)nc5)CCN4[C@H](C)C3)ccc(C#N)c2n1 [Example 84, 5-[(4R,9aS)-8-[2-[6-[(3R)-3-amino-3-methyl-pyrrolidin-1-yl]-3-pyridyl]ethyl]-4-methyl-3,4,6,7,9,9a-hexahydro-1H-pyrazino[1,2-a]pyrazin-2-yl]-2-deuterio-quinoline-8-carbonitrile]
0.097 µM | 0.01 µM | Cc1nc(N2CCNC[C@@H]2C)ccc1CN1CCN2[C@@H](C1)CN(c1ccc(C#N)c3ncccc13)C[C@H]2C [Example 85, 5-[(4R,9aS)-4-methyl-8-[[2-methyl-6-[(2S)-2-methylpiperazin-1-yl]-3-pyridyl]methyl]-3,4,6,7,9,9a-hexahydro-1H-pyrazino[1,2-a]pyrazin-2-yl]quinoline-8-carbonitrile]
0.062 µM | 0.012 µM | Cc1nc(N2CCN[C@H](C)C2)ccc1CN1CCN2[C@@H](C1)CN(c1ccc(C#N)c3ncccc13)C[C@H]2C [Example 86, 5-[(4R,9aS)-4-methyl-8-[[2-methyl-6-[(3R)-3-methylpiperazin-1-yl]-3-pyridyl]methyl]-3,4,6,7,9,9a-hexahydro-1H-pyrazino[1,2-a]pyrazin-2-yl]quinoline-8-carbonitrile]
0.052 µM | 0.015 µM | [2H]c1ccc2c(N3C[C@@H]4CN(Cc5cnc(N6CCNCC6)cc5C)CCN4[C@H](C)C3)ccc(C#N)c2n1 [Example 87, 5-[(4R,9aS)-4-methyl-8-[(4-methyl-6-piperazin-1-yl-3-pyridyl)methyl]-3,4,6,7,9,9a-hexahydro-1H-pyrazino[1,2-a]pyrazin-2-yl]-2-deuterio-quinoline-8-carbonitrile]
0.047 µM | 0.01 µM | [2H]c1ccc2c(N3C[C@@H]4CN(Cc5nc(N6CCNCC6)ccc5C)CCN4[C@H](C)C3)ccc(C#N)c2n1 [Example 88, 5-[(4R,9aS)-4-methyl-8-[(3-methyl-6-piperazin-1-yl-2-pyridyl)methyl]-3,4,6,7,9,9a-hexahydro-1H-pyrazino[1,2-a]pyrazin-2-yl]-2-deuterio-quinoline-8-carbonitrile]
0.047 µM | 0.044 µM | [2H]c1ccc2c(N3C[C@@H]4CN(CCc5ccnc(N6C[C@@H](N)[C@@H](F)C6)c5)CCN4[C@H](C)C3)ccc(C#N)c2n1 [Example 89, 5-[(4R,9aS)-8-[2-[2-[(3R,4S)-3-amino-4-fluoro-pyrrolidin-1-yl]-4-pyridyl]ethyl]-4-methyl-3,4,6,7,9,9a-hexahydro-1H-pyrazino[1,2-a]pyrazin-2-yl]-2-deuterio-quinoline-8-carbonitrile]
0.034 µM | 0.009 µM | [2H]c1ccc2c(N3C[C@@H]4CN(Cc5ccc(N6C[C@@H]7C[C@H]6CN7)nc5C)CCN4[C@H](C)C3)ccc(C#N)c2n1 [Example 92, 5-[(4R,9aS)-8-[[6-[(1S,4S)-2,5-diazabicyclo[2.2.1]heptan-2-yl]-2-methyl-3-pyridyl]methyl]-4-methyl-3,4,6,7,9,9a-hexahydro-1H-pyrazino[1,2-a]pyrazin-2-yl]-2-deuterio-quinoline-8-carbonitrile]
0.186 µM | 0.061 µM | Cc1cc(N2CCNCC2)cnc1N1CCN2[C@@H](C1)CN(c1cc(=O)n(C)c3ncccc13)C[C@H]2C [Example 93, 4-[(4R,9aR)-4-methyl-8-(3-methyl-5-piperazin-1-yl-2-pyridyl)-3,4,6,7,9,9a-hexahydro-1H-pyrazino[1,2-a]pyrazin-2-yl]-1-methyl-1,8-naphthyridin-2-one]
